Assay results as given in ChEMBL document CHEMBL6074644, “Design, synthesis, and activity evaluation of water-soluble propofol derivatives as anesthetic drugs” (Bioorg Med Chem Lett, 2024).

Experiments:
[1] = Therapeutic index, ratio of LD50 for toxicity in iv dosed Kunming mouse assessed as lethal dose to ED50 for anesthetic activity in iv dosed Kunming mouse; assay type: organism-based; details: in vivo, read-out: Ratio LD50/ED50
Mus musculus [2] = assay: Anesthetic activity in iv dosed Kunming mouse by up and down method; assay type: functional
Mus musculus [3] = assay: Anesthetic activity in Kunming mouse assessed as disappearance of flip reflex by measuring onset time administered as single bolus dose; assay type: functional
Mus musculus [4] = assay: Anesthetic activity in Kunming mouse assessed as reappearance of flip reflex by measuring duration time administered as single bolus dose; assay type: functional
[5] = Toxicity in iv dosed Kunming mouse assessed as lethal dose; assay type: organism-based; details: in vivo

| Structure (SMILES) | selectivity ratio [1] | ED50 (Mus musculus [2]) [mg/kg] | Time (Mus musculus [3]) [s] | Time (Mus musculus [4]) [s] | LD50 [5] [µmol/kg] |
| --- | --- | --- | --- | --- | --- |
| CCN1CCN(CCC(=O)Oc2c(C(C)C)cccc2C(C)C)CC1.Cl | 3.2 | 12 | 2 | 167 | 38000 |
| CCN1CCN(CC(=O)Oc2c(C(C)C)cccc2C(C)C)CC1.Cl | 1.4 | 8 | 13 | 139 | 11500 |
| CCN(CC)CCC(=O)Oc1c(C(C)C)cccc1C(C)C.Cl | 3.5 | 17 | 3 | 162 | 58800 |
| CC(C)c1cccc(C(C)C)c1OC(=O)CCN1CCOCC1.Cl | 3.6 | 12 | 16 | 145 | 43800 |
| CC(C)c1cccc(C(C)C)c1OC(=O)CCN1CCCCC1.Cl | 4.5 | 8.2 | 21 | 152 | 36900 |
| CCCN(CCC)CC(=O)OCCCC(=O)Oc1c(C(C)C)cccc1C(C)C.Cl | 5.1 | 9 | 37 | 402 | 45900 |
| CCN(CC)CC(=O)OCCCC(=O)Oc1c(C(C)C)cccc1C(C)C.Cl | 4.8 | 11 | 20 | 371 | 52800 |
| CCN1CCN(CCCC(=O)OCCCC(=O)Oc2c(C(C)C)cccc2C(C)C)CC1.Cl | 4.9 | 6.5 | 11 | 456 | 31900 |
| CC(C)c1cccc(C(C)C)c1OC(=O)CCCOC(=O)CN1CCCCC1.Cl | 4.8 | 8.3 | 27 | 440 | 39800 |
| CC1CCN(CCC(=O)Oc2c(C(C)C)cccc2C(C)C)CC1.Cl | 4.2 | 9.2 | 41 | 179 | 38900 |
| CC(C)c1cccc(C(C)C)c1OC(=O)CN1CCCCC1C.Cl (stereo not given) | 1.7 | 9.2 | 27 | 150 | 15800 |
| CC1CCN(CC(=O)OCCCC(=O)Oc2c(C(C)C)cccc2C(C)C)CC1.Cl | 4.8 | 3.6 | 8 | 362 | 17600 |
| CC(C)c1cccc(C(C)C)c1OC(=O)CCCOC(=O)CCCN1CCOCC1.Cl | 4.9 | 3.6 | 7 | 375 | 17500 |
| CCN1CCN(CC(=O)OCCCC(=O)Oc2c(C(C)C)cccc2C(C)C)CC1.Cl | 5 | 10.1 | 16 | 193 | 50500 |
| CC(C)c1cccc(C(C)C)c1OC(=O)CCN1CCN(C)CC1.Cl | 3.7 | 9 | 14 | 156 | 33400 |
| CC1CCCN(CCCC(=O)OCCCC(=O)Oc2c(C(C)C)cccc2C(C)C)C1.Cl (stereo not given) | 5.6 | 1.9 | 11 | 571 | 10700 |
| CC1CCCN(CC(=O)OCCCC(=O)Oc2c(C(C)C)cccc2C(C)C)C1.Cl (stereo not given) | 5.1 | 2.9 | 16 | 547 | 14700 |

| Structure (SMILES) | selectivity ratio [1] | ED50 (Mus musculus [2]) [mg/kg] | Time (Mus musculus [3]) [s] | Time (Mus musculus [4]) [s] | LD50 [5] [µmol/kg] |
| --- | --- | --- | --- | --- | --- |
| CC(C)c1cccc(C(C)C)c1OC(=O)CCCOC(=O)CCCN1CCCC1.Cl | 5.2 | 8.9 | 1 | 534 | 46400 |
| CC1CCN(CC(=O)Oc2c(C(C)C)cccc2C(C)C)CC1.Cl | 1.6 | 11.1 | 11 | 137 | 18000 |
| CC1CCCN(CC(=O)Oc2c(C(C)C)cccc2C(C)C)C1.Cl (stereo not given) | 2.3 | 1.7 | 27 | 172 | 3900 |
| CC1CCN(CCCC(=O)OCCCC(=O)Oc2c(C(C)C)cccc2C(C)C)CC1.Cl | 5.2 | 2.5 | 3 | 337 | 13100 |
| CC(C)c1cccc(C(C)C)c1OC(=O)CCCOC(=O)CN1CCCCC1C.Cl (stereo not given) | 4.8 | 13 | 9 | 317 | 62800 |
| CC(C)c1cccc(C(C)C)c1OC(=O)CCCOC(=O)CN1CCCC1.Cl | 5 | 11.3 | 18 | 216 | 56500 |
| CC(C)c1cccc(C(C)C)c1OC(=O)CCN1CCCC1.Cl | 2.6 | 15.1 | 5 | 180 | 3900 |
| CC(C)c1cccc(C(C)C)c1OC(=O)CCCOC(=O)CCCN1CCCCC1.Cl | 5.1 | 2.4 | 8 | 413 | 12300 |
| CCN(CC)CCCC(=O)OCCCC(=O)Oc1c(C(C)C)cccc1C(C)C.Cl | 5.1 | 7.1 | 24 | 486 | 36300 |
| CC(C)c1cccc(C(C)C)c1OC(=O)CCCOC(=O)CN1CCOCC1.Cl | 4.8 | 8.2 | 19 | 434 | 39600 |
| CC(C)c1cccc(C(C)C)c1OC(=O)CCCOC(=O)CCCN1CCCCC1C.Cl (stereo not given) | 5.2 | 6.2 | 9 | 412 | 32100 |
| CCCN(CCC)CCCC(=O)OCCCC(=O)Oc1c(C(C)C)cccc1C(C)C.Cl | 5.2 | 9.2 | 21 | 536 | 48100 |
| CCCN(CCC)CCC(=O)Oc1c(C(C)C)cccc1C(C)C.Cl | 3.8 | 15.2 | 5 | 168 | 57600 |
| CC(C)c1cccc(C(C)C)c1OC(=O)CCN1CCCCC1C.Cl (stereo not given) | 4.1 | 14 | 2 | 154 | 57700 |
| CC1CCCN(CCC(=O)Oc2c(C(C)C)cccc2C(C)C)C1.Cl (stereo not given) | 4.1 | 7.1 | 18 | 144 | 28700 |
| CC(C)c1cccc(C(C)C)c1O [PROPOFOL] | 2.7 | 0.6 | 15 | 57 | 1600 |
